Reference: patent US11959916B2, “Method, system, and program for supplying immunodynamics-related information” (priority 2017, dated 2024)

Tested on: eosinophil
Assay: Eosinophil count in peripheral blood of the prostate cancer subject
Details: Claritin in addition to Allegra from July 1, 2016

`CC(C)(C(=O)O)c1ccc(C(O)CCCN2CCC(C(O)(c3ccccc3)c3ccccc3)CC2)cc1` (stereo not shown) [Allegra, fexofenadine] was tested, and the “eosinophil count in peripheral blood, change in words” value was “started to decrease”.
